Results published in publication PMC3810962 (Cancer research, 2012).

How the values were obtained:
ROCK1 [1] = target: T1, ROCK1 (Homo sapiens, UniProt Q13464); assay: ProfilerPro kinase panel, % inhibition at […]; format: biochemical; settings: 0.2 µM
ROCK2 [2] = target: T2, ROCK2 (Homo sapiens, UniProt O75116); assay: ProfilerPro kinase panel, % inhibition at […]; format: biochemical; settings: 0.2 µM
RSK2 = RSK2 (Homo sapiens, UniProt P51812); assay: biochemical; settings: read-out: % inhibition
PKCepsilon = target: T3, PKCepsilon (Homo sapiens, UniProt Q02156); assay: biochemical; settings: read-out: % inhibition
T3 sequence (Q02156 1-737): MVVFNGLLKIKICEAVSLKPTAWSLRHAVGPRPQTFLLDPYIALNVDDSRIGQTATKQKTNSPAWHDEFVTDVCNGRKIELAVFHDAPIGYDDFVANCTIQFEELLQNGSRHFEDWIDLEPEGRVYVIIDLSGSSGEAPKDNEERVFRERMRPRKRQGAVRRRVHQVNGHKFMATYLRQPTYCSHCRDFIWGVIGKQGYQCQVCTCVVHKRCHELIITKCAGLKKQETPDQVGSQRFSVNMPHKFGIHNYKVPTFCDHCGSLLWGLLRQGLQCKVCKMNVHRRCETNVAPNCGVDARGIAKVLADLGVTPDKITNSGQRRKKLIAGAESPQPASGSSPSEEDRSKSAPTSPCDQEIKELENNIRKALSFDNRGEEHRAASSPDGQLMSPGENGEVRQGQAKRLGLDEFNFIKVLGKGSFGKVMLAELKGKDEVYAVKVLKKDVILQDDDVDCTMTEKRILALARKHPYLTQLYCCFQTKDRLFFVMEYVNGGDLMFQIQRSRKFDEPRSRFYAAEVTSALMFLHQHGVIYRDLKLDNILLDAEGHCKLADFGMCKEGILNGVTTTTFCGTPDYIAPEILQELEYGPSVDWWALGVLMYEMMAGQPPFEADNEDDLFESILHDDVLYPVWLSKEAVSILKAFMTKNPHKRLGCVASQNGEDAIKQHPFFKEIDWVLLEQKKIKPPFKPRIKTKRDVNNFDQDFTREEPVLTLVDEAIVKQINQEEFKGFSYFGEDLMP

PKG1b = target: T4, PKG1b (Homo sapiens, UniProt Q13976); assay: biochemical; settings: read-out: % inhibition
T4 sequence (Q13976 1-671): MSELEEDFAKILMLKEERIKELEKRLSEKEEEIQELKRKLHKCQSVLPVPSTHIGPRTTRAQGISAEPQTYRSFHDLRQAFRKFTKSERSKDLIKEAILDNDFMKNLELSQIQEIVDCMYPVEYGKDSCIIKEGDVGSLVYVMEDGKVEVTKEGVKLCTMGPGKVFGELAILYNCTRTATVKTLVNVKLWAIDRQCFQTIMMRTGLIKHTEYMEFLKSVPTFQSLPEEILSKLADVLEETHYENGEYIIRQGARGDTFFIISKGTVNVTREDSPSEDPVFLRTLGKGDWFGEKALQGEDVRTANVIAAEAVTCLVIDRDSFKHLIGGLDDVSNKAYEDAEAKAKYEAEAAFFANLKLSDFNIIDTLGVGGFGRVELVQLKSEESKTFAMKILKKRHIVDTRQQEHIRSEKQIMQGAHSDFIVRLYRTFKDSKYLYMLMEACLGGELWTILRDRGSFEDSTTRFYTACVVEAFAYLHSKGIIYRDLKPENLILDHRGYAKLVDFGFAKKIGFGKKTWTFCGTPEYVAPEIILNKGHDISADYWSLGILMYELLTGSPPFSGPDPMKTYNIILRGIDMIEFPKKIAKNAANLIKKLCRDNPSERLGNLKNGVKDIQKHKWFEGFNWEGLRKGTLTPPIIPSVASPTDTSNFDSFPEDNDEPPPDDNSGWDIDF

PKCtheta [3] = target: T5, PKCtheta (Homo sapiens, UniProt Q04759); assay: biochemical; settings: read-out: % inhibition
PKCdelta = PKCdelta (Homo sapiens, UniProt Q05655); assay: biochemical; settings: read-out: % inhibition
MNK1 = MNK1 (Homo sapiens, UniProt Q9BUB5); assay: biochemical; settings: read-out: % inhibition
RSK3 = RSK3 (Homo sapiens, UniProt Q15349); assay: biochemical; settings: read-out: % inhibition
PKCbeta1 = PKCbeta1 (Homo sapiens, UniProt P05771); assay: biochemical; settings: read-out: % inhibition
ROCK1 [4] = target: T1, ROCK1; assay: biochemical; settings: read-out: % inhibition
PRKX = target: T6, PRKX (Homo sapiens, UniProt P51817); assay: biochemical; settings: read-out: % inhibition
T6 sequence (P51817 1-358): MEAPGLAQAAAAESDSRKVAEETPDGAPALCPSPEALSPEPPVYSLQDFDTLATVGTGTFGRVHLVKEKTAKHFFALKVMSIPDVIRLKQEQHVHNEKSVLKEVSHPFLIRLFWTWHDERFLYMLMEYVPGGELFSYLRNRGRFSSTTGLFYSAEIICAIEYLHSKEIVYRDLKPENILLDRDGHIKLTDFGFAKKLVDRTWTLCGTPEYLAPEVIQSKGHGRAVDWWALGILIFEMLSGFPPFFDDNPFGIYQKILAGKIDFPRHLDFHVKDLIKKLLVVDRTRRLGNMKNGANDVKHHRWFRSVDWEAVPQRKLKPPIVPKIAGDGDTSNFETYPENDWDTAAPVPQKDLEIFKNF

RSK1 = RSK1 (Homo sapiens, UniProt Q15418); assay: biochemical; settings: read-out: % inhibition
ROCK2 [5] = target: T2, ROCK2; assay: biochemical; settings: read-out: % inhibition
PKA = PKA (Homo sapiens, UniProt P17612); assay: biochemical; settings: read-out: % inhibition
MST1 = target: T7, MST1 (Homo sapiens, UniProt Q13043); assay: biochemical; settings: read-out: % inhibition
T7 sequence (Q13043 1-487): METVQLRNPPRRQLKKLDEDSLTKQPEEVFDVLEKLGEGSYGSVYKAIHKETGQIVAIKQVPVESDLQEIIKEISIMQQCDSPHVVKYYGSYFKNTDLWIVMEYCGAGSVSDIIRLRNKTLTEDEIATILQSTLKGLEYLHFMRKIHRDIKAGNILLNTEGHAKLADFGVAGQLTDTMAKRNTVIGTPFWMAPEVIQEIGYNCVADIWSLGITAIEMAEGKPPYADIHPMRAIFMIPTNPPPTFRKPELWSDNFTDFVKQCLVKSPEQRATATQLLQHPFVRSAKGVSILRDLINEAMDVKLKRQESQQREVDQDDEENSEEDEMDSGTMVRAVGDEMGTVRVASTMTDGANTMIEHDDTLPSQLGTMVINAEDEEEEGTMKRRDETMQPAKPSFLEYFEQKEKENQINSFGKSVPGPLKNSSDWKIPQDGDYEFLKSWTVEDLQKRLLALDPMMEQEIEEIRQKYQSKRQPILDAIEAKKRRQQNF

STK10 [6] = target: T8, STK10 (Homo sapiens, UniProt O94804); assay: biochemical; settings: read-out: % inhibition
IKKbeta = target: T9, IKKbeta (Homo sapiens, UniProt O14920); assay: biochemical; settings: read-out: % inhibition
T9 sequence (O14920 1-756): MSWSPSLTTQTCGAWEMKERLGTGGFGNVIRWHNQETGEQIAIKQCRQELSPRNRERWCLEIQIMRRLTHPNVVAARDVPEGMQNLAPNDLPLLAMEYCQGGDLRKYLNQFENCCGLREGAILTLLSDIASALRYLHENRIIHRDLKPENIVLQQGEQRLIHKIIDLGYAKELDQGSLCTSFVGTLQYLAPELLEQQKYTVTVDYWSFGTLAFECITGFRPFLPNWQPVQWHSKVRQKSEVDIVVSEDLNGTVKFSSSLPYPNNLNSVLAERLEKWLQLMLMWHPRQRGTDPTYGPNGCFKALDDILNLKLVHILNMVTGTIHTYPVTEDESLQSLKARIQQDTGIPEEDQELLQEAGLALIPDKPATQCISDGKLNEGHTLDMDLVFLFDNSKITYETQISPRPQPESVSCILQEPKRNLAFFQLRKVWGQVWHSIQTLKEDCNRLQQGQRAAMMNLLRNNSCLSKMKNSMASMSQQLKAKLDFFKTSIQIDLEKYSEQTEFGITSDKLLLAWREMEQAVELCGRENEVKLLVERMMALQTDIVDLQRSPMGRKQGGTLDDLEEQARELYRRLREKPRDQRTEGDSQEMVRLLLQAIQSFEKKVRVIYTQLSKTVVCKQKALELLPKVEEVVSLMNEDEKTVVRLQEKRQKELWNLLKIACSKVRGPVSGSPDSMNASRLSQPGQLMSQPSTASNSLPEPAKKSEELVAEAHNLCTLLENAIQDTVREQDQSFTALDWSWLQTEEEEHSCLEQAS

ARK5 = target: T10, ARK5 (Homo sapiens, UniProt O60285); assay: biochemical; settings: read-out: % inhibition
T10 sequence (O60285 1-661): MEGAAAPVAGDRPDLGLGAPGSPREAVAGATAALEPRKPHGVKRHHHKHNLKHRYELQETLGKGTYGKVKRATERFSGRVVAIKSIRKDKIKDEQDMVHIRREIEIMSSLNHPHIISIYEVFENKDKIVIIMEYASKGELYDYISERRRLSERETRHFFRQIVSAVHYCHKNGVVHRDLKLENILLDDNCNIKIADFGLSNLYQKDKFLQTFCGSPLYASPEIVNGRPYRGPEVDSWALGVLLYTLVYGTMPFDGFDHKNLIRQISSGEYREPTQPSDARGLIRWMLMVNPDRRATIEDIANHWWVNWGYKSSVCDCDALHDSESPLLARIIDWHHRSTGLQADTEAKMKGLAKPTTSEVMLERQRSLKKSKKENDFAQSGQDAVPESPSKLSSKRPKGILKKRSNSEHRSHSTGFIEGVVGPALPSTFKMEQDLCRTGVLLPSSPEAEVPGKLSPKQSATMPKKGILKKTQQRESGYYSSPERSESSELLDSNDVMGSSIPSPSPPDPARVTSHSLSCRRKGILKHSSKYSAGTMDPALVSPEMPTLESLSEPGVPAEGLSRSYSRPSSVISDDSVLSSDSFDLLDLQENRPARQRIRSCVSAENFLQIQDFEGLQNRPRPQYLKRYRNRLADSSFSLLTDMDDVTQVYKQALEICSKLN

PKG = target: T11, PKG (Homo sapiens, UniProt Q13976); assay: biochemical; settings: read-out: % inhibition
T11 sequence (Q13976 1-671): T4 sequence (Q13976 1-671)

STK10 [7] = target: T8, STK10; assay: ProfilerPro kinase panel, % inhibition at […]; format: biochemical; settings: 0.2 µM
ROCK2 [8] = target: T2, ROCK2; assay: ProfilerPro kinase panel, % inhibition at […]; format: biochemical; settings: read-out: Compound / OXA-06
ROCK1 [9] = target: T1, ROCK1; assay: biochemical; settings: read-out: Compound / OXA-06
PKCtheta [10] = target: T5, PKCtheta; assay: ProfilerPro kinase panel, % inhibition at […]; format: biochemical; settings: read-out: Compound / Y27632
STK10 [11] = target: T8, STK10; assay: ProfilerPro kinase panel, % inhibition at […]; format: biochemical; settings: read-out: Compound / Y27632

T2 sequence (O75116 whole entry): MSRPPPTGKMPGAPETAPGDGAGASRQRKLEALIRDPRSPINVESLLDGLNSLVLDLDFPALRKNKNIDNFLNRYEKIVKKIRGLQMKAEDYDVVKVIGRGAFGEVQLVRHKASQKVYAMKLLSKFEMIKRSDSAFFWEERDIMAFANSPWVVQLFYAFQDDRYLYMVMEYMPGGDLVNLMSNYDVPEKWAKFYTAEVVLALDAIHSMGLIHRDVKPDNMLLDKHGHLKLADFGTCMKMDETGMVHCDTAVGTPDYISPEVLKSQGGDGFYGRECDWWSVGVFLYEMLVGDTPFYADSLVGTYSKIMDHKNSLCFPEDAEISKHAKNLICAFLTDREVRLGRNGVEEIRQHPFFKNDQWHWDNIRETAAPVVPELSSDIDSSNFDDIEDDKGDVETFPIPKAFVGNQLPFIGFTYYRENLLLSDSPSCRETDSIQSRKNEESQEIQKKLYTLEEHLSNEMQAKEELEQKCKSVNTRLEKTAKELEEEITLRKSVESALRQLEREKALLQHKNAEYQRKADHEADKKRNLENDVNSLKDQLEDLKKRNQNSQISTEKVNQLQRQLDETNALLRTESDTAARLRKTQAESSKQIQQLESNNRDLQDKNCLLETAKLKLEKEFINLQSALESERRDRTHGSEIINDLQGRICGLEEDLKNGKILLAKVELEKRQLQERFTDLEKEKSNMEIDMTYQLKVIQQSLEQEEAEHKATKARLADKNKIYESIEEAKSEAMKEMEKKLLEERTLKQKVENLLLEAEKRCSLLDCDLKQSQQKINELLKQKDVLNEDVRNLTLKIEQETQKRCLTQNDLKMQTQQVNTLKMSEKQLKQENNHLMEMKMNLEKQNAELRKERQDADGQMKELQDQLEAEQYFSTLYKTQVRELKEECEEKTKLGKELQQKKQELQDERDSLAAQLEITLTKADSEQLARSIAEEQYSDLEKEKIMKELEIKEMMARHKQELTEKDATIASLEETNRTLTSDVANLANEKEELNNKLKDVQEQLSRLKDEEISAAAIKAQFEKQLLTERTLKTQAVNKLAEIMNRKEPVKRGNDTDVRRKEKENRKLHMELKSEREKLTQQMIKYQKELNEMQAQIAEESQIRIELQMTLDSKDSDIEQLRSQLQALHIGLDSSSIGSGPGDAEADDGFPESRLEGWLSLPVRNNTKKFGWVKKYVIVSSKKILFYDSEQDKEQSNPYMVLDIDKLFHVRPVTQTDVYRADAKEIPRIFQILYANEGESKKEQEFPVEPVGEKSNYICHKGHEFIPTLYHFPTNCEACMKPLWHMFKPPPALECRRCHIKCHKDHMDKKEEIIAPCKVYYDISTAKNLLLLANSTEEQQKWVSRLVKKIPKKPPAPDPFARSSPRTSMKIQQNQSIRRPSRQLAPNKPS
T8 sequence (O94804 whole entry): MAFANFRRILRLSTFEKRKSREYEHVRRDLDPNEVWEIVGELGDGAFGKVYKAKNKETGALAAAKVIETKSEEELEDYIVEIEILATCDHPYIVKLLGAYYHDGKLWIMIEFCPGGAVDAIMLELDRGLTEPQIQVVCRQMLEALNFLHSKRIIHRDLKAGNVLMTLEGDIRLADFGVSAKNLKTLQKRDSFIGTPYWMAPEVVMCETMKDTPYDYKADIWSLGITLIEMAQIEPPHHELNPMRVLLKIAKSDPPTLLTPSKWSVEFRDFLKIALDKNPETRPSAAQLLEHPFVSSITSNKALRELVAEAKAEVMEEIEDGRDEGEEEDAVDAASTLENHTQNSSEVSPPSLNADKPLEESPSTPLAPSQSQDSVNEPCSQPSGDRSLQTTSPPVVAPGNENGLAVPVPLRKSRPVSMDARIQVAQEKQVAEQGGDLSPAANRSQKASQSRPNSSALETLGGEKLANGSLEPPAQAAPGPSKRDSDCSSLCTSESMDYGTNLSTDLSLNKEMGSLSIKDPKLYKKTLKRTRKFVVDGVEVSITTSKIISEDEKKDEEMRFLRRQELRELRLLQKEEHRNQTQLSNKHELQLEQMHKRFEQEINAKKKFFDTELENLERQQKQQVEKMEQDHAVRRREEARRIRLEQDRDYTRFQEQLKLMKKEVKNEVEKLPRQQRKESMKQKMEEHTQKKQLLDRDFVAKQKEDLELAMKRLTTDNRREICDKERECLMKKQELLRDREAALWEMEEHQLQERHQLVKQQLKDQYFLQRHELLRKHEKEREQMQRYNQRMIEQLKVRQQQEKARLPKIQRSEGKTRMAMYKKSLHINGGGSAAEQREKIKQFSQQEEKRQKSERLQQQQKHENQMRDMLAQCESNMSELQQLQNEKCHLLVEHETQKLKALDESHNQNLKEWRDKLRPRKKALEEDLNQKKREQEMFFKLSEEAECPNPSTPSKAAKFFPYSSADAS
Sequence of RSK1 (Q15418 whole entry): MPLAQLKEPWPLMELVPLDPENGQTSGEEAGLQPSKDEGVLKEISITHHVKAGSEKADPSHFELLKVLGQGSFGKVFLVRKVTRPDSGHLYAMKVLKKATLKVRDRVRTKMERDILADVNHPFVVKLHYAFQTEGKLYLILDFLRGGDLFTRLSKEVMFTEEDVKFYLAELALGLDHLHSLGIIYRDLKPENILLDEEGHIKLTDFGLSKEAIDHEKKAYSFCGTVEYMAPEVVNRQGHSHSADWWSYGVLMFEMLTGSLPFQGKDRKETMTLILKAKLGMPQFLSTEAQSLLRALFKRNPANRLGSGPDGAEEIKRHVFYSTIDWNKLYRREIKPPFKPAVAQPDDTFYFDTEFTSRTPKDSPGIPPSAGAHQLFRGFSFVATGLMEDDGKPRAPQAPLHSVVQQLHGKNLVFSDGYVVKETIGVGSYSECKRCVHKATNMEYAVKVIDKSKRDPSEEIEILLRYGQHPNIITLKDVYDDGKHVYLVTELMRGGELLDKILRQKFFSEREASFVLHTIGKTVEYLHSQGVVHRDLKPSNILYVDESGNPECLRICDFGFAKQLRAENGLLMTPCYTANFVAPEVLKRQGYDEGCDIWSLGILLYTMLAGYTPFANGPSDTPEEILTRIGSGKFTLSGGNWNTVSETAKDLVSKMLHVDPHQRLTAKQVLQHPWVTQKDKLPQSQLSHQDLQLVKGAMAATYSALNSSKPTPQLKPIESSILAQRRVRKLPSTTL
Sequence of PKCdelta (Q05655 whole entry): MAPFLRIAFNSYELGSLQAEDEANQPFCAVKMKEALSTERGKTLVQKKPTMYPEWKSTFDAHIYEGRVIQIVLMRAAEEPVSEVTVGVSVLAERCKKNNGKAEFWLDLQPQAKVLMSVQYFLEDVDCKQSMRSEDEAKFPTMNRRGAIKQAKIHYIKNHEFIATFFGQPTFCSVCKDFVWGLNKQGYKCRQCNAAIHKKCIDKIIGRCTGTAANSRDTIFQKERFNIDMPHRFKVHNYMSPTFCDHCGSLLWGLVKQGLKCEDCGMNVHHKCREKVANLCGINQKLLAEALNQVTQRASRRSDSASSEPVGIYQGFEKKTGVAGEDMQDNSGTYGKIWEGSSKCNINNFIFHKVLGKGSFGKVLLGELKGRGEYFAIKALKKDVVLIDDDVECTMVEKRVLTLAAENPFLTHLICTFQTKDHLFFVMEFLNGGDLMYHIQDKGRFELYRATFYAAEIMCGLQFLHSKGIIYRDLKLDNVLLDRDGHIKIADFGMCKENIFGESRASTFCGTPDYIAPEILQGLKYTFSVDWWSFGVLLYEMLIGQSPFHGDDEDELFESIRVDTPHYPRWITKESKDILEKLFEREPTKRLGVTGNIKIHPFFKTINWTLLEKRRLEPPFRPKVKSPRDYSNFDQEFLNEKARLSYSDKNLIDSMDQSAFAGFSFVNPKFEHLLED
Sequence of MNK1 (Q9BUB5 whole entry): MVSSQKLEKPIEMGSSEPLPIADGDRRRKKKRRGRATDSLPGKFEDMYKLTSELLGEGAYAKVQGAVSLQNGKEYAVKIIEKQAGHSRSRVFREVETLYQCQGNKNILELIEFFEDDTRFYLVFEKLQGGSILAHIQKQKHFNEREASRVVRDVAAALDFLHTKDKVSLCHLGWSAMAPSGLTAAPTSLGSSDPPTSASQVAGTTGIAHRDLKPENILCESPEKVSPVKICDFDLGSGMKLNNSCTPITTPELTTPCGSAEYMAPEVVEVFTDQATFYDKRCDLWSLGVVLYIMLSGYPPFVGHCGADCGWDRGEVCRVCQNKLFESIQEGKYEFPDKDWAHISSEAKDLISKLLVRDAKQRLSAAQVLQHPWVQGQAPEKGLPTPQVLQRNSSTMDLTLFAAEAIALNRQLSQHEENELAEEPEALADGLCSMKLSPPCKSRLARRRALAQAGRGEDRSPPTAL
Sequence of PKCbeta1 (P05771 whole entry): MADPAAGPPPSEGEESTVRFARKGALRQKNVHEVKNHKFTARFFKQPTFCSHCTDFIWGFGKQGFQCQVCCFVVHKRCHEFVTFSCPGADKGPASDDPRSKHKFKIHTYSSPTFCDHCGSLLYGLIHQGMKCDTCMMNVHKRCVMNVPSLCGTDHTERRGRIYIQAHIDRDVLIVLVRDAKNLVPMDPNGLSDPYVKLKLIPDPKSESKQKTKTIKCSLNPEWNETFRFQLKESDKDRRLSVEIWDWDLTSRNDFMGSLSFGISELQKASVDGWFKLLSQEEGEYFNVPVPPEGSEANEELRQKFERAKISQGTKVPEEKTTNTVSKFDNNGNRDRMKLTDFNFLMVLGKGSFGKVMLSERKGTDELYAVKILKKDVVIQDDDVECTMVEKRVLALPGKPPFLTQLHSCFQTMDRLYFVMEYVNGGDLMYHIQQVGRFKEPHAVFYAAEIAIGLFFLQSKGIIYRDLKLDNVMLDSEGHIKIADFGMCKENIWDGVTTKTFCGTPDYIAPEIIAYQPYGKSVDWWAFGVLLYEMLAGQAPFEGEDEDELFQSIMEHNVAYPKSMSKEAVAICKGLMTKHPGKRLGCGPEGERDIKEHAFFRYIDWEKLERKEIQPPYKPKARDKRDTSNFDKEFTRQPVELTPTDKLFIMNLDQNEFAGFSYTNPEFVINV

## Fc1ccccc1CNCc1ccc(-c2ccnc3[nH]ccc23)cc1 [OXA-06]
ROCK1 [1]
  Compound / OXA-06: 94
ROCK2 [2]
  Compound / OXA-06: 95
RSK2
  inhibition at 0.2 µM: 17%
PKCepsilon
  inhibition at 0.2 µM: 26%
PKG1b
  inhibition at 0.2 µM: 73%
PKCtheta [3]
  inhibition at 0.2 µM: 12%
PKCdelta
  inhibition at 0.2 µM: 36%
MNK1
  inhibition at 0.2 µM: 16%
RSK3
  inhibition at 0.2 µM: 10%
PKCbeta1
  inhibition at 0.2 µM: -3%
ROCK1 [4]
  inhibition at 0.2 µM: 94%
PRKX
  inhibition at 0.2 µM: 56%
RSK1
  inhibition at 0.2 µM: 6%
ROCK2 [5]
  inhibition at 0.2 µM: 95%
PKA
  inhibition at 0.2 µM: 98%
MST1
  inhibition at 0.2 µM: 19%
STK10 [6]
  inhibition at 0.2 µM: 58%
IKKbeta
  inhibition at 0.2 µM: 56%
ARK5
  inhibition at 0.2 µM: 56%
PKG
  inhibition at 0.2 µM: 72%
STK10 [7]
  Compound / OXA-06: 58

## C[C@@H](N)[C@H]1CC[C@H](C(=O)Nc2ccncc2)CC1 [Y-27632]
PKG1b
  inhibition at 10 µM: 68%
PKCdelta
  inhibition at 10 µM: 55%
MNK1
  inhibition at 10 µM: 78%
RSK3
  inhibition at 10 µM: 82%
PKCbeta1
  inhibition at 10 µM: 52%
PRKX
  inhibition at 10 µM: 78%
RSK1
  inhibition at 10 µM: 51%
PKA
  inhibition at 10 µM: 29%
MST1
  inhibition at 10 µM: 59%
IKKbeta
  inhibition at 10 µM: 82%
ARK5
  inhibition at 10 µM: 1%
PKG
  inhibition at 10 µM: 64%
ROCK2 [8]
  inhibition at 10 µM: 95%
ROCK1 [9]
  inhibition at 10 µM: 94%
PKCtheta [10]
  inhibition at 10 µM: 82%
STK10 [11]
  inhibition at 10 µM: 87%
